Results from patent publication US20150276714A1, “METHOD OF IDENTIFYING OR EVALUATING BENEFICIAL ACTIVES AND COMPOSITIONS CONTAINING THE SAME” (The Procter & Gamble Company, priority 2012, published 2015).

Experiments:
[1] = tested on: human dermal fibroblasts (BJ cell line); experiment: Oxygen consumption rate (oxidative phosphorylation), XF Extracellular Flux Analyzer; assay type: cell-based
Excerpt: This method enables the non-lethal, simultaneous detection of metabolic indicators associated with the oxidative phosphorylation and glycolysis metabolic pathways in a controlled environment. The method also enables the collection of kinetic data. When assessing the metabolic response to a stressor or test agent, it is important to assess both metabolic pathways simultaneously to understand how the two metabolic pathways interact with the stressor or test agent and/or to one another. Additionally, it is important to monitor the metabolic pathways in real time (i.e., repeating periodic measurements) to observe trends and/or transient responses that may be missed when using methods that provide only static data. Thus, destructive tests are not suitable for use herein since they typically only allow for a single measurement. With regard to the fibroblasts discussed above in FIGS. 5A, 5B, 5C, 5D, 5E, 6, 7A, 7B, 7C, 7D, 7E and 8, frozen human dermal fibroblasts were obtained from the BJ cell line commercially available from ATCC, Bethesda, Md. […] Oxygen consumption rate and extracellular acidification rate may be detected using an XF Extracellular Flux Analyzer or equivalent. […]

[2] = tested on: human dermal fibroblasts (BJ cell line); experiment: Extracellular acidification rate (glycolysis), XF Extracellular Flux Analyzer; assay type: cell-based
Excerpt: This method enables the non-lethal, simultaneous detection of metabolic indicators associated with the oxidative phosphorylation and glycolysis metabolic pathways in a controlled environment. The method also enables the collection of kinetic data. When assessing the metabolic response to a stressor or test agent, it is important to assess both metabolic pathways simultaneously to understand how the two metabolic pathways interact with the stressor or test agent and/or to one another. Additionally, it is important to monitor the metabolic pathways in real time (i.e., repeating periodic measurements) to observe trends and/or transient responses that may be missed when using methods that provide only static data. Thus, destructive tests are not suitable for use herein since they typically only allow for a single measurement. With regard to the fibroblasts discussed above in FIGS. 5A, 5B, 5C, 5D, 5E, 6, 7A, 7B, 7C, 7D, 7E and 8, frozen human dermal fibroblasts were obtained from the BJ cell line commercially available from ATCC, Bethesda, Md. The fibroblasts were grown to 70-80% confluence in a culture medium of Eagle's Minimum Essential Medium (“EMEM”) supplemented with 10% fetal bovine serum (“FBS”) and gentamicin/amphotericin B ×500 solution (EMEM and FBS are available from ATCC, and gentamicin/amphotericin B ×500 solution is available from Invitrogen). The fibroblasts were plated at 1×10^5 cells per well in Gelatin-coated plates 24 hours prior to testing. Each well included 100 μL of the fibroblast medium described above. A test medium was made from Dulbecco's Modified Eagle Medium (available from Seahorse Bioscience), 25 mM glucose and 1 mM pyruvate. The test medium was warmed to 37° C. and the pH adjusted to 7.4. The cells were grown and plated at 37° C. and 5% CO2 air. The fibroblast medium in the wells was replaced by the test medium 1 hour prior to taking measurements. Oxygen consumption rate and extracellular acidification rate may be detected using an XF Extracellular Flux Analyzer or equivalent. […]

## NC(=O)c1cccnc1 [niacinamide]
[1]; 1.0 mM niacinamide by itself
  effect on oxphos metabolism: no significant affect on the oxphos metabolism
[1]; niacinamide 1.0 mM in combination with […] hydrogen peroxide
  effect on OCR in presence of hydrogen peroxide: lessen the initial decrease in OCR somewhat
[2]; plate 1, 0.1 mM and […] niacinamide in combination with […] hydrogen peroxide
  effect on hydrogen peroxide-induced decrease in glycolysis metabolism: lessen the detrimental effect of the hydrogen peroxide on glycolysis metabolism
[2]; plate 2, 0.5 mM and 1.0 mM niacinamide in combination with […] hydrogen peroxide
  effect on hydrogen peroxide-induced decrease in extracellular acidification rate: prevent the acidification rate from decreasing below the basal value
[2]; plate 2, 1.0 mM niacinamide by itself
  effect on fibroblast glycolysis: substantially no effect on fibroblast glycolysis
